Here are results for 4 compounds from US3951954A, “Novel oxofuryl ester derivatives of penicillin and cephalosporin” (priority 1971, dated 1976).

Counter-ions that a name gives are not always drawn.

For data set [1] the following is noted: background statement; cited from earlier work.
The nature of data set [2]: Concentration of ampicillin in blood plasma of rats after oral administration (Experiment a). Conditions: rat, in vivo, 20 mg/kg. From the text:
Now, for showing the excellent properties of the compounds of this invention, the experiments of testing the concentration of the compound in blood when it was orally administered and the results thereof are shown in the following examples together with the results of the tests made about ampicillin and pivampicillin.
Each of ampicillin tri-hydrate, pivampicillin hydrochloride-mono-hydrate, and the hydrochloride of the aimed compound of this invention was orally administered to rats (male, each group five rats) in an amount of 20 mg/kg as ampicillin and after 0.5 hour, the blood was drawn and the concentration of ampicillin in the blood plasma was measured.

The test system of another data set is liver. Conditions: Biochem. Pharmacol. 16, 1533-1537 (1967) and others; cited from earlier work.
For data set [3] the following is noted: Chemical Abstracts 45, 4824h (1951); 55, 8653d (1961); cited from earlier work.

As for `CC1(C)S[C@@H]2C(NC(=O)C(N)c3ccccc3)C(=O)N2[C@H]1C(=O)O` (stereo partly drawn) [ampicillin, 6-(α-aminophenylacetamido)penicillanic acid], the “extent of absorption by oral administration” value in data set [1] is on record as “not necessarily sufficient”.
As to `CC1(C)S[C@@H]2[C@H](NC(=O)[C@H](N)c3ccccc3)C(=O)N2[C@H]1C(=O)O` [Ampicillin tri-hydrate, reference compound], the concentration at 0.5 h in data set [2] came to 1000 ng/mL.
As to `C=O` [formaldehyde], in the data set with liver, the influence on liver result is “bad influences on a liver”. Also, in data set [3], the “toxic property compared with other aldehydes of larger molecular weight” value is “about 50 times”.
Consider `CC1(C)S[C@@H]2[C@H](NC(=O)[C@H](N)c3ccccc3)C(=O)N2[C@H]1C(=O)OC1OC(=O)c2ccccc21` (some centres unmarked) [Example 2, ampicillin 1-oxo-1,3-dihydroisobenzofuran-3-yl ester hydrochloride], for which the “Concentration of ampicillin in blood plasma” value in data set [2] (30 min) stood at 5580 ng/mL.
